Laboratory results published in PMC12076188 (Cancer Research Communications, 2025).
pIC50: −log10 of the molar value. Where two headings read alike, the source gives them in different places.

What was measured:
[1] = molecular target: T1, GDP-bound NRAS WT (Homo sapiens, UniProt P01111); experiment: SOS1-mediated guanine nucleotide exchange assay (TR-FRET); format: biochemical
T1 construct: His-tagged NRAS WT (aa 1–172); made in house; host or cells: Escherichia coli

[2] = molecular target: T2, GppNp-bound NRAS WT (Homo sapiens, UniProt P01111); experiment: GppNp-loaded RAS and cRAF interaction assay (HTRF); format: biochemical
T2 construct: His-tagged NRAS WT (aa 1–172); made in house; host or cells: Escherichia coli

[3] = system: NCI-H1373 lung cancer xenograft; experiment: Cell line–derived xenograft study; format: in vivo, BALB/c-nu mice; conditions: NCI-H1373 lung cancer xenograft model; single agents or combination, orally once a day
Description: Female BALB/c nude mice (CAnN.Cg-Foxn1^nu/Crl, RRID: IMSR_CRL:194) were obtained from Beijing Vital River Laboratory Animal Technology Co., Ltd. Female BALB/c-nu mice (BALB/cAnSlacNifdc-nu) were obtained from SPF (Beijing) Biotechnology Co., Ltd. Female NCG mice (NOD/ShiLtJGpt-Prkdc^em26Cd52Il2rg^em26Cd22/Gpt) were obtained from GemPharmatech. Subcutaneous tumors were induced by injecting cells in PBS containing 50% BD Matrigel (Corning) in the right flank of female BALB/c-nu mice (NCI-H1373, 5 × 10^6 cells), female BALB/c nude mice (MIA PaCa-2, 1 × 10^7 cells), or female NCG mice (NCI-H358, 5 × 10^6 cells).

[4] = molecular target: T3, GDP-bound HRAS WT (Homo sapiens, UniProt P01112); experiment: SOS1-mediated guanine nucleotide exchange assay (TR-FRET); format: biochemical; conditions: GDP-bound HRAS WT; compound pre-incubation 25°C, 60 min; read-out: IC50
T3 construct: His-tagged HRAS WT (aa 1–166); made in house; host or cells: Escherichia coli

[5] = molecular target: T4, GppNp-bound HRAS WT (Homo sapiens, UniProt P01112); experiment: GppNp-loaded RAS and cRAF interaction assay (HTRF); format: biochemical; conditions: GppNp-bound HRAS WT and cRAF RBD interaction; read-out: IC50
T4 construct: His-tagged HRAS WT (aa 1–166); made in house; host or cells: Escherichia coli

[6] = system: Ba/F3 cells carrying HRAS p.G12C; experiment: Ba/F3-engineered cell line viability; format: cell-based; conditions: Mus musculus, BaF3, 144 h; Ba/F3 HRAS p.G12C; 6 days of treatment; read-out: Cell viability IC50
Method: (§1) The inhibitory activity of compounds on Ba/F3-engineered cell line viability was tested by Kyinno Biotechnology. Other cell viability assays on human cancer cell lines were conducted in-house. Cells were seeded in 96-well plates and incubated overnight, followed by treatment with various concentrations of compounds or solvent control for 6 days. Cell viability was detected using either the CellTiter-Glo (CTG) luminescent cell viability assay or the CTG 3D cell viability assay (Promega) for 2D and 3D CTG assays, respectively. […] The cell density is indicated in Supplementary Table S3.

[7] = system: Ba/F3 cells carrying NRAS p.G12C; experiment: Ba/F3-engineered cell line viability; format: cell-based; conditions: Mus musculus, BaF3, 144 h; Ba/F3 NRAS p.G12C; 6 days of treatment; read-out: Cell viability IC50
Method: as §1

[8] = system: CR6256 PDX tumors rebounding after sotorasib treatment; experiment: PDX study on tumors regrown under sotorasib; format: in vivo, mice; conditions: after 63 days of 100 mg/kg sotorasib; then 100 mg/kg sotorasib, 100 mg/kg glecirasib, 50 mg/kg cetuximab or combination

T1 sequence (P01111 1-172): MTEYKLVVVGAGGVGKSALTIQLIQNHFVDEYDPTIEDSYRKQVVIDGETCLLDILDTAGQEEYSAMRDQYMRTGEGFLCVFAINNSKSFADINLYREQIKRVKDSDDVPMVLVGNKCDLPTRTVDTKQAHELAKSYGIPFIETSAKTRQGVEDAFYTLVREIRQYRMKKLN
T2 sequence (P01111 1-172): as above
T3 sequence (P01112 1-166): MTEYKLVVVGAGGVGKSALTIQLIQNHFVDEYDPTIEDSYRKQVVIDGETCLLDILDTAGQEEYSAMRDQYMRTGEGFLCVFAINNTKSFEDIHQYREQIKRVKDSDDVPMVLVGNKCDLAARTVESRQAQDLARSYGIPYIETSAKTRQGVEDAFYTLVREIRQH
T4 sequence (P01112 1-166): as above

With C=C(F)C(=O)N1CCN(c2nc(OC[C@@H]3CCCN3C)nc3c2CCN(c2cccc4cccc(Cl)c24)C3)C[C@@H]1CC#N [Adagrasib] as the compound, how does the pIC50 [1] read?
The pIC50 was under 5.00.

What about the pIC50 [2] of the same compound?
Its pIC50 is under 5.00.

How did the TGI [3] turn out when Nc1nccc(Sc2cnc(N3CCC4(CC3)Cc3ncccc3[C@H]4N)cn2)c1Cl [JAB-3312] was run?
Its TGI is 64%.

C=CC(=O)N1CCN(c2nc(=O)n(-c3c(C)ccnc3C(C)C)c3nc(-c4c(O)cccc4F)c(F)cc23)[C@@H](C)C1 [Sotorasib, reference compound] was tested. Which pIC50 [4] did it give?
Its pIC50 is under 5.00.

And the pIC50 ([1]; GDP-bound NRAS WT, compound pre-incubation 25°C, 60 min, read-out: IC50)?
The pIC50 was under 5.00.

What about the pIC50 [5] of the same compound?
The pIC50 was under 5.00.

And the pIC50 ([2]; GppNp-bound NRAS WT and cRAF RBD interaction, read-out: IC50)?
Its pIC50 is under 5.00.

What about the pIC50 [6] of the same compound?
Its pIC50 is 7.57.

What about the pIC50 [7] of the same compound?
Its pIC50 is 7.83.

What about the “tumor response of rebound tumors” value [8] of the same compound?
The value was “continued to grow”.
